The subject of data set [1] is Mus musculus. Put plainly: Anticonvulsant activity was measured from mES test by delivering the drug intraperitoneally after 0.5 hr. It counts as functional. As to conditions: ip.
In data set [2] the test system is Mus musculus. Briefly: Anticonvulsant activity was measured from scMET test by delivering the drug intraperitoneally after 0.5 hr. The class given is functional. The conditions noted are these: ip.
Data set [3] relates to Mus musculus. Briefly: ED50 was evaluated from MES test in mice by delivering intraperitoneally and the value was determined at peak time effect or peak neurologic effect. As to conditions: ip. It counts as functional.
The subject of data set [4] is Mus musculus. Put plainly: ED50 was evaluated from scMET test in mice by delivering intraperitoneally and the value was determined at peak time effect or peak neurologic effect. It counts as functional. The conditions noted are these: ip.
A short description of data set [5]: Neurotoxicity was determined from the rotarod ataxia test for the compound by the intraperitoneal administration. The class given is toxicity, organism-based. As to conditions: mouse, in vivo, ip.
Data set [6] is described as follows: Protective index was determined as ratio of TD50 to ED50(MES method). The class given is functional.
Data set [7] is described as follows: Protective index was determined as ratio of TD50 to ED50(scMET method). It counts as functional.
The species named for data set [8] is Mus musculus. Briefly: animal or person. As to conditions: ip.
The species named for data set [9] is Mus musculus.
Description: ED50 was evaluated from scMET test in mice by delivering intraperitoneally and the value was determined at peak time effect or peak neurologic effect; NA-Not active
For data set [10], the species on record is Mus musculus. This is another data set of the same source.
In data set [11] the test system is Mus musculus. Put plainly: Anticonvulsant activity was measured from mES test by delivering the drug intraperitoneally after 0.5 hr; NA-Not active. The class given is functional, organism-based.

The source made the active and inactive calls. The rule behind the calls is not given here. Bounds are passed on as bounds.

In general, ED50 refers to the dose that gives a 50% effect, or the effect in half of the subjects. In the case of `NC1=NC(=O)CN1C(=O)OCc1ccccc1`, in the data set on Mus musculus [1], the ED50 is 459 mg/kg.
In turn, `CC(C)C[C@@H]1N=C(N)NC1=O` showed an ED50 with Mus musculus [2] of more than 300 mg/kg.
For `NC1=NC(=O)[C@H](Cc2ccccc2)N1C(=O)OCc1ccccc1`, the ED50 in the data set on Mus musculus [1] is 213 mg/kg; in the data set on Mus musculus [2] it was more than 1000 mg/kg.
With `CC(C)C[C@H]1C(=O)N=C(N)N1C(=O)OCc1ccccc1`, the ED50 worked out at 98.6 mg/kg with Mus musculus [3], 141 mg/kg in the data set on Mus musculus [4], 44.5 mg/kg with Mus musculus [1] and 92.8 mg/kg in the data set with Mus musculus [2]. Besides, in data set [5], the TD50 was determined as 350 mg/kg. The PI in data set [6] was found to be 3.5; in data set [7] it was 2.5.
For `NC1=NC(=O)[C@H](Cc2ccccc2)N1`, the median effective dose (ED50) with Mus musculus [1] was 97.8 mg/kg; with Mus musculus [2] it was more than 1000 mg/kg.
In turn, `CC(C)C[C@@H]1C(=O)N=C(N)N1C(=O)OCc1ccccc1` yielded an ED50 with Mus musculus [2] of 547 mg/kg.
Take `CCC1(C)CC(=O)NC1=O` (stereo not given) [ETHOSUXIMIDE]: the values for the ED50 in the data set with Mus musculus [3] and in the data set on Mus musculus [4] were more than 1000 mg/kg and 130 mg/kg, respectively. In addition, in the data set filed under Mus musculus [8], the TD50 is 441 mg/kg.
Regarding `CCC1(c2ccccc2)NC(=O)N(C)C1=O` (stereo not given) [MEPHENYTOIN], the ED50 is 61 mg/kg in the data set on Mus musculus [3] and 31 mg/kg with Mus musculus [4].
The molecule `NC(=O)NC(=O)Cc1ccccc1` [PHENACEMIDE] showed an ED50 with Mus musculus [3] of 87 mg/kg. The PI in data set [6] came to 4.8; in data set [7] it was 3.6.
For the molecule `CCC1(c2ccccc2)C(=O)NC(=O)NC1=O` [PHENOBARBITAL], the ED50 was determined as 21.8 mg/kg with Mus musculus [3] and 13.2 mg/kg with Mus musculus [4]. This molecule also returned a TD50 in the data set listed under Mus musculus [8] of 69 mg/kg.
As for `O=C1NC(=O)C(c2ccccc2)(c2ccccc2)N1` [PHENYTOIN], it took a dose of 2.3 mg/kg to reach the 50% effect level in the data set with Mus musculus [1] (ED50). Besides, the ED50 entry in the data set listed under Mus musculus [9] and in the data set listed under Mus musculus [10] was “inactive” in each case.
Take `O=C1NC(=S)NC1(c1ccccc1)c1ccccc1` [THIOPHENYTOIN]: the ED50 entry with Mus musculus [11] is “inactive”. The same molecule gave an ED50 in the data set on Mus musculus [2] of 1340 mg/kg.

The values above are taken from ChEMBL document CHEMBL1125842, “Synthesis and anticonvulsant activity of 2-iminohydantoins” (J Med Chem, 1991).
